Measured values from PubChem BioAssay AID256 (DTP/NCI, 2004).
Toxic doses and inconclusive results are not listed. How the source made its calls: active means survival T/C of 150% or more; inactive means T/C below 125% in these data.

System: CD2F1 mice, L1210 leukemia ip, survival T/C
Assay: NCI In Vivo Anticancer Drug Screen. Data for tumor model L1210 Leukemia (intraperitoneal) in CD2F1 (CDF1) mice
Details: higher = longer survival
How it was run: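 Vehicle-treated tumor-bearing mice served as controls (C) for compound-treated mice (T). Reported figure is T divided by C.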

[1] = endpoint: mean survival time, dose: 100.0 mg/kg/injection, schedule: Q01DX009 (ip), vehicle: saline with Tween-80
[2] = endpoint: mean survival time, dose: 200.0 mg/kg/injection, schedule: Q01DX009 (ip), vehicle: saline with Tween-80
[3] = endpoint: mean survival time, dose: 50.0 mg/kg/injection, schedule: Q01DX001 (ip), vehicle: saline
[4] = endpoint: mean survival time, dose: 100.0 mg/kg/injection, schedule: Q01DX001 (ip), vehicle: saline
[5] = endpoint: mean survival time, dose: 200.0 mg/kg/injection, schedule: Q01DX001 (ip), vehicle: saline
[6] = endpoint: mean survival time, dose: 100.0 mg/kg/injection, schedule: Q04DX002 (ip), vehicle: saline with Tween-80
[7] = endpoint: mean survival time, dose: 200.0 mg/kg/injection, schedule: Q04DX002 (ip), vehicle: saline with Tween-80
[8] = endpoint: mean survival time, dose: 400.0 mg/kg/injection, schedule: Q04DX002 (ip), vehicle: saline with Tween-80
[9] = endpoint: mean survival time, dose: 100.0 mg/kg/injection, schedule: Q01DX009 (ip), vehicle: other
[10] = endpoint: mean survival time, dose: 200.0 mg/kg/injection, schedule: Q01DX009 (ip), vehicle: other

Measured: T/C

CCCCCCCCCCCCCCCC/C(=C\c1ccc2ccccc2c1)[N+](=O)[O-]
inactive: endpoint: mean survival time, dose: 75.0 mg/kg/injection, schedule: Q01DX001 (ip), vehicle: other 106 % of control | endpoint: mean survival time, dose: 150.0 mg/kg/injection, schedule: Q01DX001 (ip), vehicle: other 96 % of control | endpoint: mean survival time, dose: 300.0 mg/kg/injection, schedule: Q01DX001 (ip), vehicle: other 95 % of control

CCCCOC(=O)CSSCC(=O)OCCCC
inactive: endpoint: mean survival time, dose: 50.0 mg/kg/injection, schedule: Q01DX009 (ip), vehicle: saline with Tween-80 101 % of control | [1] 101 % of control | [2] 93 % of control

CN(C)CCNCc1ccc2c(c1)OCO2
inactive: endpoint: mean survival time, dose: 25.0 mg/kg/injection, schedule: Q01DX001 (ip), vehicle: saline 102 % of control | [3] 102 % of control | [4] 102 % of control

O=[Te]=O
inactive: endpoint: median survival time, dose: 3.12 mg/kg/injection, schedule: Q01DX009 (ip), vehicle: saline 100 % of control | endpoint: median survival time, dose: 6.25 mg/kg/injection, schedule: Q01DX009 (ip), vehicle: saline 98 % of control | endpoint: median survival time, dose: 10.0 mg/kg/injection, schedule: Q01DX009 (ip), vehicle: saline 101 % of control | endpoint: median survival time, dose: 12.5 mg/kg/injection, schedule: Q01DX009 (ip), vehicle: saline 100 % of control | endpoint: median survival time, dose: 20.0 mg/kg/injection, schedule: Q01DX009 (ip), vehicle: saline 97 % of control

Cc1nc(N)[nH]c(=O)c1CCCNS(=O)(=O)c1ccc(CN)cc1
inactive: [4] 110 % of control | [5] 101 % of control | endpoint: mean survival time, dose: 400.0 mg/kg/injection, schedule: Q01DX001 (ip), vehicle: saline 100 % of control

O=C(Nc1ccc(N(CCCl)CCCl)cc1)c1ccccc1
inactive: endpoint: mean survival time, dose: 100.0 mg/kg/injection, schedule: Q04DX003 (ip), vehicle: Klucel (hydroxypropylcellulose) (HPC) 96 % of control | endpoint: mean survival time, dose: 200.0 mg/kg/injection, schedule: Q04DX003 (ip), vehicle: Klucel (hydroxypropylcellulose) (HPC) 101 % of control | endpoint: mean survival time, dose: 400.0 mg/kg/injection, schedule: Q04DX003 (ip), vehicle: Klucel (hydroxypropylcellulose) (HPC) 109 % of control

CCOc1ccc(CCN2CC34C=CC(O3)C(C(=O)O)C4C2=O)cc1OC (configuration not stated)
inactive: [6] 95 % of control | [7] 95 % of control | [8] 91 % of control

O=c1cc(CO)[nH]c(=O)[nH]1
inactive: endpoint: mean survival time, dose: 12.5 mg/kg/injection, schedule: Q01DX009 (ip), vehicle: other 91 % of control | endpoint: mean survival time, dose: 25.0 mg/kg/injection, schedule: Q01DX009 (ip), vehicle: other 94 % of control | endpoint: mean survival time, dose: 50.0 mg/kg/injection, schedule: Q01DX009 (ip), vehicle: other 91 % of control | [9] 92 % of control | [10] 97 % of control

COc1cc(Cl)ccc1NC(=O)Oc1ccc(C)cc1[N+](=O)[O-]
inactive: endpoint: mean survival time, dose: 5.0 mg/kg/injection, schedule: Q01DX009 (ip), vehicle: saline with Tween-80 93 % of control | [1] 96 % of control | [2] 96 % of control

Cc1ccc(N)nc1[N+](=O)[O-]
inactive: [9] 100 % of control | endpoint: mean survival time, dose: 100.0 mg/kg/injection, schedule: Q04DX003 (ip), vehicle: other 102 % of control | [10] 96 % of control | endpoint: mean survival time, dose: 200.0 mg/kg/injection, schedule: Q04DX003 (ip), vehicle: other 96 % of control | endpoint: mean survival time, dose: 400.0 mg/kg/injection, schedule: Q01DX009 (ip), vehicle: other 100 % of control | endpoint: mean survival time, dose: 400.0 mg/kg/injection, schedule: Q04DX003 (ip), vehicle: other 96 % of control

CC(=O)OC(Cc1ccc(Cl)cc1)c1ccc(Cl)cc1 (configuration not stated)
inactive: endpoint: mean survival time, dose: 50.0 mg/kg/injection, schedule: Q04DX002 (ip), vehicle: saline with Tween-80 96 % of control | [6] 96 % of control | [7] 90 % of control | [8] 90 % of control

CCCCC(CC)C(=O)N1CCOCC1 (configuration not stated)
inactive: [1] 96 % of control | [2] 92 % of control | endpoint: mean survival time, dose: 400.0 mg/kg/injection, schedule: Q01DX009 (ip), vehicle: saline with Tween-80 86 % of control

CC/C1=C/N(C=O)CCc2c([nH]c3ccccc23)C(C(=O)OC)(c2cc3c(cc2OC)N(C)C2C(O)(C(=O)OC)C(OC(C)=O)C4(CC)C=CCN5CCC32C54)CC(=O)C1 (configuration not stated)
inactive: [3] 107 % of control | [4] 102 % of control | [5] 96 % of control
